Tests used:
Assay type in all cases: in vivo, Cryptotis parva
[1] = Analysis of SP in serum, gut and brain tissues following intraperitoneal injection of an emetic dose of SP; settings: SP 50 mg/kg i.p.
Description: Different groups of shrews were injected with a 50 mg/kg emetic dose of SP (i.p.) and were sacrificed at 5 min, 15 min, and 30 min (n=5-6 animals per group) post injection. Blood serum as well as two different brain (frontal cortex and brain stem) and gut (duodenum and jejunum) tissue samples were collected for the determination of SP levels relative to a saline-treated shrew control group (n=6). The brain SP concentration was determined in all of the cited exposure times, whereas gut SP tissue levels were analyzed for the 0 min (control), 5 min and 15 min exposure periods Likewise, serum SP concentrations were determined at the 0 min, 5 min and 15 min exposure periods as well as in a 10 min SP-exposed shrew group.
To collect blood, shrews were rapidly euthanized with isoflurane (Vedco, St. Joseph, Mo.) one at a time. Then, each shrew was laid on its back and taped to a metal tray, and cut transversely under the diaphragm and along the sides towards the arms to allow the ribcage to be lifted away. The heart was then held with forceps, and a 0.5 cc syringe with 28 ga hypodermic needle was inserted into the left ventricle. Blood was pulled gently into the syringe directly from the ventricle until the descending aorta appeared clear (approximately 50 μl -100 μl total volume), and rapidly transferred to a non-heparinized tube for centrifugation and removal of red blood cells. Brain and gut tissue were rapidly dissected following blood collection and decapitation. Preliminary sample preparation procedures were carried out to optimize detection conditions.
Because proteases can be deactivated by heat (El-Salhy, 107 Upsala J. Med. Sci. 101-10 (2002)), at basic pH (Crawford & Kalmakoff, 24 J. Virol. 412-15 (1977)), and in the presence of EDTA (Wei & Bobek, 49 Antimicrob. Agents Chemother. 2336-42 (2005)), the entire intestine was immediately immersed in a 70° C. preheated, 5 ml solution of normal saline containing […] EDTA at pH8.0. After a 5 min exposure, each gut was thrice flushed and rinsed with 5 ml of the saline solution and then allowed to cool down naturally to room temperature. Then, each gut was dissected and the duodenum and jejunum samples were placed separately in test tubes containing 1 ml assay buffer. The dissected frontal cortex and brain stem samples were placed in different test tubes containing 0.5 ml assay buffer. Each sample was homogenized using a tissue tearor (Biospec) set at level 5 for 15sec. The homogenates were then centrifuged at 17,000×g for 15 min at 4° C. The supernatants were obtained and saved at −80° C. until used for the EIA detection of SP. Samples were analyzed for SP using the “Correlate-EIA” kit from Assay Designs using a microplate reader.
(§1) The data on the frequency of emesis and scratchings were analyzed by the Kruskal-Wallis (KW) nonparametric one-way analysis of variance (ANOVA) and post hoc analysis by Dunn's multiple comparisons test or Mann-Whitney test. A P value of <0.05 was necessary to attain statistical significance. The incidence of emesis (number of shrews vomiting) was analyzed by the Fisher's exact test to determine whether there were differences between groups. When appropriate, pairwise comparisons were also made by this method. Two-way analysis of variance using the Kruskal-Wallis or Fisher's exact tests were initially utilized to respectively analyze the dose-response results of GR73632 on emesis and scratching behaviors, and percentage of shrews vomiting in saporin- and corresponding saline-pretreated control shrews. […] For some emesis data, the two-tailed Mann-Whitney test was used. The SP tissue concentration data were analyzed by a one-way ANOVA followed by Dunnett's t test as post hoc analysis. Fos-IR was quantified by counting immunopositive nuclei within each hemisection containing the region of interest (ROI). The number of nuclei was averaged across sections with the ROI for each animal, and the group mean and standard error obtained.

[2] = system: Least Shrew; experiment: Dose response emesis and scratching studies with tachykinin receptor agonists; settings: for increase in the frequency of vomiting vs vehicle control / increase in emesis frequency vs vehicle control: 30 min observation; for onset of first emesis after injection: i.p. agonist injection
Description: The present protocols were based upon preliminary studies as well as published findings in the Least Shrew. Darmani, 2001a; Darmani et al., 69 Pharmacol. Biochem. Behay. 239-49 (2001b). On the test day, the shrews were allowed to acclimate to the test laboratory for at least one hour prior to experimentation. To habituate the animals to the test environment, each shrew was randomly selected and transferred to a 20 cm×18 cm×21 cm clean clear plastic cage and offered four mealworms (Tenebrio sp.) 30 min prior to experimentation. […]
as §1

[3] = system: NK1 receptor; experiment: Histological analysis of NK1 receptor immunotoxic lesions with SSP-saporin
Description: (§2) Immunohistochemistry was performed by blocking free-floating sections with 10% normal horse serum (NHS) and 3% hydrogen peroxide in PB with 0.3% Triton X-100 (TX) for 30 min After rinsing three times in PB, tissue was put in either: (1) rat anti-Substance P monoclonal antibody (Chemicon, 1:400); (2) sheep anti-Fos polyclonal (Chemicon, 1:600); or (3) rabbit anti-NK1 receptor polyclonal (Santa Cruz, 1:500), with 5% NHS and 0.3% TX, and incubated overnight at room temperature with gentle shaking. After rinsing three times in PB, the tissue was placed in biotinylated donkey anti-rat, anti-sheep, or anti-rabbit (respectively) IgG secondary antibody (Jackson Immuno, dilution 1:600). The secondary antibody was diluted in the same diluent described for the primary antibody, and the tissue incubated at room temperature with shaking for 75 min. After rinsing three times in PB, tissue was incubated for 60 min in horse radish peroxidase-conjugated avidin-biotin complex (Vector Labs Vectastain kit, diluted 1:2) in PB. Tissue was then rinsed twice in PB, then once in imidazole-acetate buffer (0.1 M, pH7.4), then reacted for 6 min in 0.0006% hydrogen peroxide with 2% nickel ammonium sulfate-enhanced diaminobenzidine (DAB, 0.05% in 0.1 M imidazole-acetate buffer).
To better localize the induction of emesis by GR73632, dose-response curves were generated for shrews pretreated either with the NK1 receptor immunotoxin SSP-saporin or saline and challenged four days later with varying doses of GR73632 (0, 1, 2.5, or 5 mg/kg, i.p., n=8-10 per group). Briefly, thirty shrews were injected i.p. with 1.2 mg/kg SSP-saporin in sterile saline, and thirty-five shrews were injected with sterile saline alone. In addition, two more shrews were injected with 1.2 mg/kg unconjugated saporin (saporin; ATS) and two more with 1.2 mg/kg of saporin conjugated to a nonspecific peptide sequence (Blank-saporin; ATS). […] Each shrew was monitored for 30 min post-injection and vomiting and scratching behaviors quantified. […]

[4] = system: Fos; experiment: Fos-IR in brain and enteric nervous system after GR73632; settings: GR73632 2.5 mg/kg i.p.
Description: Shrews were given four mealworms each and GR73632 (2.5 mg/kg, i.p., or vehicle (saline)) injection. For emesis-related Fos visualization, a shrew was transcardially perfused 60 min to 75 min after vomiting occurred, typically 20 min to 35 min post-injection.
After the appropriate time period as described above, shrews were anesthetized with a lethal dose of pentobarbital ([…]) and perfused transcardially via 25 ga blunted needle connected to a peristaltic pump. The shrew was perfused first with ice cold heparinized saline (0.9% NaC1, 60 sec-90 sec), followed by ice cold 4% paraformaldehyde/5% picric acid in pH7.4, 0.1 M (10 min). Brains were removed and stored in 30% sucrose in 0.1 M phosphate buffer (PB) overnight, then embedded in blocks of 12% gelatin in 30% sucrose/PB. The blocks were postfixed for 3 hr in 2% paraformaldehyde/PB, then rinsed and immersed in 30% sucrose/PB until they sank (usually 1 hr to 2 hr). The brain block was cut on a freezing benchtop microtome (Leica) at 30 μm into five series, and stored in PB with 0.03% sodium azide.
as §2
After reacting, the tissue was rinsed thoroughly in PB and mounted onto gel-subbed slides out of PB. After air-drying, slides were dehydrated through a series of ascending ethanols (50%-75%-90%-100%), then cleared in xylene (Fisher). Cleared slides were coverslipped with DEPEX (Electron Microscopy Sciences).
Photomicrographs of regions of interest were taken at 1600×1200 pixel digital resolution with a SPOT digital camera (Diagnostic Instruments) attached to a Pentium 4 PC running version 4.0 of the SPOT software. The camera was mounted to a Nikon Eclipse E600 microscope. A calibrated scale bar was added and the photos exported to Adobe Photoshop 7, where the Photoshop brush tool was used to mark Fos+nuclei as they were counted. Relevant structures were identified using an atlas produced in lab (Ray & Darmani, 2007). Cell counts for each structure were averaged on a per-section basis and collated in a spreadsheet for statistical analysis.
The data on the frequency of emesis and scratchings were analyzed by the Kruskal-Wallis (KW) nonparametric one-way analysis of variance (ANOVA) and post hoc analysis by Dunn's multiple comparisons test or Mann-Whitney test. A P value of <0.05 was necessary to attain statistical significance. The incidence of emesis (number of shrews vomiting) was analyzed by the Fisher's exact test to determine whether there were differences between groups. When appropriate, pairwise comparisons were also made by this method. […]

[5] = system: Least Shrew, NK1 receptor-intact or NK1 receptor-ablated; experiment: GR73632 emesis and scratching after SSP-saporin ablation of peripheral NK1 receptors
Description: To better localize the induction of emesis by GR73632, dose-response curves were generated for shrews pretreated either with the NK1 receptor immunotoxin SSP-saporin or saline and challenged four days later with varying doses of GR73632 (0, 1, 2.5, or 5 mg/kg, i.p., n=8-10 per group). Briefly, thirty shrews were injected i.p. with 1.2 mg/kg SSP-saporin in sterile saline, and thirty-five shrews were injected with sterile saline alone. In addition, two more shrews were injected with 1.2 mg/kg unconjugated saporin (saporin; ATS) and two more with 1.2 mg/kg of saporin conjugated to a nonspecific peptide sequence (Blank-saporin; ATS). Shrews were returned to the animal facility for three days and supplied with unrestricted food and water. Saporin-injected and Blank-saporin-injected shrews were perfused four days post-injection, and brain and gut harvested as described for immunohistochemical staining. The SSP-saporin and saline-injected shrews were divided into different groups on day 4 post-injection, and each group was injected i.p. with varying doses varying doses of 0, 1, 2.5, or 5 mg/kg GR73632 dissolved in saline. Each shrew was monitored for 30 min post-injection and vomiting and scratching behaviors quantified. Three shrews from each group were then perfused 90 min to 120 min post-injection as described previously for Fos immunohistochemistry, and brain and gut harvested. Immunohisto-chemistry (IHC) was performed for SP, NK1 receptor, and Fos as described, to qualitatively examine the extent of immunotoxic lesion in the brain and/or enteric nervous system. IHC for SP and NK1 receptor was done on the saporin- and Blank-saporin-injected shrews to verify the specificity of SSP-saporin and lack of toxicity of unconjugated saporin.
as §1

Substance: SP: tachykinin undecapeptide, nonselective NK1 receptor agonist, purchased from Sigma/RBI
- time for brain stem SP-tissue level to attain maximal levels [1]: 15 min
- decrease of basal frontal cortex SP concentration ([1]; 5 min): 34%
- increase of basal SP blood serum level ([1]; 5 min post-injection): 3488 fold
- increase of brain stem SP over basal level ([1]; 5 min post-injection): 156%
- decrease of basal frontal cortex SP concentration ([1]; 15 min): 68%
- increase of brain stem SP over basal level ([1]; 15 min post-injection): 287%
- brain stem SP level ([1]; 30 min): returned to basal tissue level
- decrease of basal frontal cortex SP concentration ([1]; 30 min): 89%
- SP blood serum level ([1]; by 10 min): rapidly declined
- duodenal SP tissue level increase over basal levels ([1]; within 5 min): 1883%
- jejunal SP tissue level increase over basal level ([1]; within 5 min): 2133%
- emetic activity ([2]; 10 mg/kg i.p.): inactive
- emetic activity ([2]; 25 mg/kg i.p.): inactive
- percentage of shrews vomiting ([2]; 50 mg/kg i.p.): 82%
- increase in the frequency of vomiting vs vehicle control ([2]; 50 mg/kg i.p.): 382%
- percentage of shrews vomiting ([2]; 100 mg/kg i.p.): 78%
- increase in the frequency of vomiting vs vehicle control ([2]; 100 mg/kg i.p.): 322%
- other overt behavioral effect (e.g. scratching) ([2]; at the doses tested, 10-100 mg/kg i.p.): no other overt behavioral effect
- onset of first emesis after injection [2]: 1 to 2 min

Substance: [Sar^9, Met (O2)“]-SP-saporin [SSP-saporin]
- NK1 receptor-IR in the gut vs saline-treated controls ([3]; 1.2 mg/kg i.p., four days): clear loss
- blood brain barrier penetration ([3]; peripherally administered, 1.2 mg/kg i.p.): does not penetrate the blood brain barrier

Substance: delta Ava [L-Pro^9, N-MeLeu^10]SP (7-11) [GR73632]
- Fos-IR in gastrointestinal enteric nervous system vs saline [4]: significant differences
- shrews in which vomiting was induced ([4]; N=6): five of six
- Fos-IR nuclei per coronal hemisection, AP ([4]; mean ± standard error): 2.4 ± 1.2
- Fos-IR nuclei per coronal hemisection, DMNX ([4]; mean ± standard error): 3.3 ± 1.0
- Fos-IR nuclei per coronal hemisection, NTS ([4]; mean ± standard error): 8.2 ± 1.1
- Fos-IR nuclei per coronal hemisection, PFC ([4]; mean ± standard error): 58.4 ± 14.2
- percentage of shrews vomiting ([5]; GR73632 1 mg/kg, NK1 receptor-intact (saline-pretreated) shrews): 44%
- number of vomits ([5]; GR73632 1 mg/kg, normal shrews): about two vomits
- percentage of shrews vomiting ([5]; GR73632 1 mg/kg, saporin-pretreated NK1 receptor-ablated shrews): 0%
- percentage of shrews vomiting ([5]; GR73632 2.5 mg/kg, NK1 receptor-ablated shrews): 28%
- percentage of shrews vomiting ([5]; GR73632 2.5 mg/kg, NK1 receptor-intact shrews): 62.5%
- bouts of vomiting, ablated vs intact shrews ([5]; GR73632 5 mg/kg, NK1 ablated shrews): significantly less bouts of vomiting
- percentage of shrews vomiting ([5]; GR73632 5 mg/kg, NK1 receptor-ablated shrews): 100%
- percentage of shrews vomiting ([5]; GR73632 5 mg/kg, NK1 receptor-intact shrews): 100%
- number of scratches ([5]; GR73632 1, 2.5, 5 mg/kg, NK1 receptor-ablated shrews): increased in a significant manner at all tested doses
- duration of expulsion of food/liquid ([5]; NK1 receptor-ablated shrews): 15 to 30 s
- duration of emesis (each vomit expulsion) ([5]; NK1 receptor-intact animals): 2 to 4 s
- frequency of scratching behavior vs vehicle ([2]; 2.5 mg/kg i.p.): Significant enhancements
- percentage of shrews vomiting ([2]; 2.5 mg/kg i.p.): 87.5%
- increase in emesis frequency vs vehicle control ([2]; 2.5 mg/kg i.p.): 438%
- frequency of scratching behavior vs vehicle ([2]; 5 mg/kg i.p.): Significant enhancements
- percentage of shrews vomiting ([2]; 5 mg/kg i.p.): 100%
- increase in emesis frequency vs vehicle control ([2]; 5 mg/kg i.p.): 575%
- onset of first emesis after injection [2]: 3 to 4 min

Substance: saporin
- NK1 receptor-IR and SP-IR vs control shrews ([3]; 1.2 mg/kg, four days post-injection): not different

Reference: patent US20110093959A1, “CRYPTOTIS PARVA SCREENING MODEL FOR ANTIEMETIC POTENTIAL” (priority 2008, published 2011)
